In US12653880B2, “SARS-CoV-2 polypeptides” (priority 2021, dated 2026):

Legend:
[1] = tested on: golden Syrian hamsters; test: Peptide-specific antibody ELISA of sera from immunized hamsters; format: in vivo; conditions: listed in rank order
Experimental: Female golden Syrian hamsters (Charles River Laboratories, Wilmington, Mass.) are immunized with a 2-dose regimen with a 14-day interval between doses. Two weeks after the second dose, hamsters are euthanized. Hamster blood is collected by cardiac puncture and serum is prepared for the quantification of peptide-specific antibodies by an in-house indirect ELISA method. Spleens and draining lymph nodes serve as a source of cells for the IFN-γ ELISPOT and other assays. Unless otherwise noted, water-in-oil emulsions are administered subcutaneously, all other adjuvant formulations are administered intramuscularly.
A total of 52 peptides are tested for immunogenicity. Antibody responses in hamster sera specimens to individual peptides or peptide pools are quantified by ELISA.
Briefly, Immulon 4 HBX 96-well plates for ELISA are obtained from Thermo Fisher Scientific (Waltham, Mass.). The plate is coated with 1 μg/well of either a pool of peptides or individual peptides in coating buffer (50 mM sodium carbonate, pH 9.6) overnight at 4° C. […] Optical density at 450 nm (OD450) is read within 15 minutes after adding H2SO4 using a Spectramax® ABS Plus microplate reader (Molecular Devices, San Jose, Calif.) and the SoftMax® 7 Pro Software.

[2] = tested on: C57BL/6J mice; test: Antibody ELISA of sera from immunized mice; format: in vivo; conditions: listed in rank order
Experimental: Briefly, Immulon 4 HBX 96-well plates for ELISA are obtained from Thermo Fisher Scientific (Waltham, Mass.). The plate is coated with 1 μg/well of either a pool of peptides or individual peptides in coating buffer (50 mM sodium carbonate, pH 9.6) overnight at 4° C. After the coating buffer is removed, the plate is blocked with 2% BSA in PBS for 1 hour at room temperature, followed by washing three times with 0.5% Tween in PBS (PBST). Sera are diluted 1:200 in PBS and added to each well and the plate is incubated for 2 hours at room temperature. After incubation, the plate is washed three times with PBST. The secondary antibody is conjugated with HRP, and iss added at a 1:10,000 dilution in PBS. The plate is incubated for 1 hour at room temperature. After washing three times with PBST, TMBE-100 peroxidase substrate (Rockland Immunochemicals, Inc., Limerick, Pa.) is added, followed by 30 minutes incubation at room temperature. Finally, the enzymatic reaction is stopped by adding 2M H2SO4. Optical density at 450 nm (OD450) is read within 15 minutes after adding H2SO4 using a Spectramax® ABS Plus microplate reader (Molecular Devices, San Jose, Calif.) and the SoftMax® 7 Pro Software. […]

[3] = tested on: golden Syrian hamsters; test: IFN-γ ELISPOT of spleen and lymph node cells from immunized hamsters; format: in vivo; conditions: listed in rank order
[4] = tested on: rVSV-SARS-CoV-2-S virus; conditions: in vivo

| Sequence | Hamsters ELISA: top 10 immunogenic peptides, ranked on magnitude of responses [1] | Mice ELISA: top 10 immunogenic peptides, ranked on magnitude of responses [2] | Hamsters ELISPOT: top 10 immunogenic peptides, ranked on magnitude of responses [3] | neutralization activity of peptide-specific antibody [4] |
| --- | --- | --- | --- | --- |
| YFTSDYYQLYSTQLSTDTGV [ORF3a] | ORF3a | ORF3a | ORF3a | – |
| SRIGMEVTPSGTWLTYTGAIKLDDKDPNFKDQVILLNKHIDAYK (N-overlap Long) | – | – | – | non-specific background |
| PQIQLAVTRMENAVGRD [ORF9b.1*11] | ORF9b.1*11 | ORF9b.1*11 | ORF9b.1*11 | – |
